One assay has as its target T1, human PPARγ (Homo sapiens, UniProt P37231).
T1 construct: expressed in transfected cells
T1 sequence (P37231 1-477 isoform P37231-2): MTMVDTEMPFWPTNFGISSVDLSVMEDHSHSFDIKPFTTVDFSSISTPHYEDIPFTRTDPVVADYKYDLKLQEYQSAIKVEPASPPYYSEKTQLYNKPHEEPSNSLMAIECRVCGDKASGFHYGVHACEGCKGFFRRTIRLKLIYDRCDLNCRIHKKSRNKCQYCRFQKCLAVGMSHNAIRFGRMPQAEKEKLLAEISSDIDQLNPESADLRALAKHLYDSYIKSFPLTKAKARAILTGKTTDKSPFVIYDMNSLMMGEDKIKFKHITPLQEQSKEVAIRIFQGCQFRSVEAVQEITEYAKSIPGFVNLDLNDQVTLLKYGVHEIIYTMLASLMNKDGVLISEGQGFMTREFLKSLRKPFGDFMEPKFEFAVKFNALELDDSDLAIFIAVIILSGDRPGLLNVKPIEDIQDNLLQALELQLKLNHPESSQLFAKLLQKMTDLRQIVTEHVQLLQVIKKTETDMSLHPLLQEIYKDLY
T1 sequence (P19793 1-462 partner): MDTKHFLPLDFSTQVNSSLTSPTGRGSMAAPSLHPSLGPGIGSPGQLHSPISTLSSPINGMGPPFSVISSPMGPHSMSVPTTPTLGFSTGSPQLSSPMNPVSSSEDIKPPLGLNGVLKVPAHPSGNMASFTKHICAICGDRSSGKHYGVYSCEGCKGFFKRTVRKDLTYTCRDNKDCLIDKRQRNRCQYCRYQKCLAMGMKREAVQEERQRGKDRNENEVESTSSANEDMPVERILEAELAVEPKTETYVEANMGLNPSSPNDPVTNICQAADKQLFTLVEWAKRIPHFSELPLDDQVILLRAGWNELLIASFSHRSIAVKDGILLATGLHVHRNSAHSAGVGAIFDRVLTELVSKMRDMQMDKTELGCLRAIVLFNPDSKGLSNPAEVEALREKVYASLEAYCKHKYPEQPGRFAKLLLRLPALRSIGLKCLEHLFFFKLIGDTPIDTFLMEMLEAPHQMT
Nature of the assay: PPARγ agonistic activity: luciferase reporter assay in PPARγ:RXRα:4ERPP/CHO-K1 cells. As to conditions: CHO-K1, test compound 10^−6 M; luciferase activity of control compound X (1 μM) = 100%, non-administration group = 0%. The assay is classed as cell-based. The source says: A CHO-K1 cell cultured in a 150 cm^2 cell culture flask [manufactured by Corning Costar Corporation, USA] comprising Ham's F12 medium [manufactured by INVITROGEN, USA] supplemented with 10% fetal bovine serum [manufactured by INVITROGEN, USA] was taken off by treating with 0.5 g/L trypsin-0.2 g/L EDTA (ethylenediamine tetraacetate) [manufactured by Life Technologies, Inc., USA], and then the cell was washed with PBS (Phosphate-buffered saline) [manufactured by INVITROGEN, USA], centrifuged (1000 rpm, 5 minutes) and suspended in PBS. Subsequently, DNA was introduced into the cell under the conditions shown below using GENE PULSER [manufactured by Bio-Rad Laboratories, USA].
Namely, to a cuvette having a 0.4 cm gap were added 8×10^6 cells and 10 μg of plasmid pVgRXR2-hPPARγ obtained in the above-mentioned (4) and 10 μg of reporter plasmid pGL3-4ERPP-TK neo obtained in the above-mentioned (3), which was subjected to electroporation at the voltage of 0.25 kV under the capacitance of […] Subsequently, the cell was transferred into a F12 medium comprising 10% fetal bovine serum and cultured for 24 hours, and then the cell was taken off again and centrifuged. Then, the pellet was suspended in Ham's F12 medium comprising 10% fetal bovine serum supplemented with 500 μg/ml of Geneticin [manufactured by INVITROGEN, USA] and 250 μg/ml of Zeocin [manufactured by INVITROGEN, USA]. The obtained suspension was diluted to the density of 10^4 cells/ml and inoculated in a 96-well plate [manufactured by Corning Costar Corporation, USA], which was cultured in a CO2 gas incubator at 37° C., whereby obtaining a Geneticin- and Zeocin-resistant transformant.
Subsequently, after the transformed cell line thus obtained was cultured in a 24-well plate [manufactured by Corning Costar Corporation, USA], a cell line in which expression of the luciferase was induced, i.e., PPARγ:RXRα:4ERPP/CHO-K1 cell was selected by the addition of 10 μM pioglitazone hydrochloride.
PPARγ:RXRα:4ERPP/CHO-K1 cells obtained in the above-mentioned (5) were cultured in F12 medium [manufactured by INVITROGEN, USA] containing 10% fetal bovine serum [manufactured by MOREGATE, Australia], seeded in a 96 well half-area white plate [manufactured by Corning Coster Corporation, USA] at 5×10^3 cells/well, and cultured in a CO2 incubator at 37° C. overnight.
Then, the medium was removed from the 96 well half-area white plate, hamF12 medium containing 0.1% fatty acid-free bovine serum albumin (BSA) (45 μl) and a test compound (5 μl) were added, and the mixture was cultured in the CO2 incubator at 37° C. for 1 day. After removing the medium, Picagene 7.5 [manufactured by Dai Nippon Inki, Japan] (20 μl) diluted 2-fold with HBSS (HANKS' BALANCED SALT SOLUTION) [manufactured by BIO […], USA] was added, and the mixture was stirred. Using 1420 ARVO Multilabel Counter [manufactured by PerkinElmer, USA], luciferase activity was measured. The percentage (%) was calculated from the luciferase activity of the test compound when the luciferase activity of the control compound (compound X: 5-[3-(4-{[2-(2-furyl)-5-methyl-1,3-oxazol-4-yl]methoxy}-3-methoxyphenyl)propyl]-1,3-oxazolidine-2,4-dione) (1 μM) was taken as 100% and the luciferase activity of the test compound non-administration group was taken as 0%.
Background: A reporter such as luciferase makes a cellular process visible.

Another assay deals with T2, human AT1 receptor (Homo sapiens, UniProt P30556).
T2 construct: expressed in transfected cells; membrane fraction
T2 sequence (P30556 1-359): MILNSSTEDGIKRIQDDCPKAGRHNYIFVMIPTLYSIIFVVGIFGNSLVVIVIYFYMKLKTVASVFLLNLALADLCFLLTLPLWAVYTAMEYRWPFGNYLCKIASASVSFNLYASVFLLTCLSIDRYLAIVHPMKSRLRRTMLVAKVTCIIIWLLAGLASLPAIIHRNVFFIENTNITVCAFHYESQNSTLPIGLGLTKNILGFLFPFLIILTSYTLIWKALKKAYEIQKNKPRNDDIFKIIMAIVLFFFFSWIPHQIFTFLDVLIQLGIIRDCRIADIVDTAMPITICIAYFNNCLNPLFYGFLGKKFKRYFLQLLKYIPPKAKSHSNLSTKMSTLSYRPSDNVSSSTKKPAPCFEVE
The experiment in a line: AT1 receptor antagonistic activity: [125I]-angiotensin II binding assay on human AT1 receptor-expressing CHO-K1 cellular membrane fraction. As to conditions: 22.5 pM [125I]-angiotensin II, 1 hr room temperature. The method, then: CHO-K1 cell (RIKEN, Japan) capable of stable expression of human AT1 receptor was cultured, recovered, suspended in homogenize buffer (10 mM NaHCO3 (pH 7.4), 5 mM EDTA, 1× Complete EDTA free) [manufactured by Roche, Switzerland], and homogenized. The homogenate was centrifuged at low-speed (900×g, 10 min, 4° C.), and the supernatant was recovered and ultracentrifuged (90,000×g, 1 hr, 4° C.). The supernatant was discarded, and the pellets were resuspended in suspension buffer (50 mM Tris (pH 7.4), 1 mM EDTA, 1× Complete EDTA free).
(9 μg) in the presence of AT1 membrane and test compound in 100 μl, (total reaction volume) of reaction buffer (50 mM Tris (pH 7.4), 10 mM MgCl2 supplemented or not supplemented with 0.3 mg/mL fatty acid-free bovine serum albumin [manufactured by Wako Pure Chemical Industries, Ltd., Japan]). The reaction mixture was incubated in 96 well polypropylene plate for 1 hr at room temperature, and the reaction was quenched by rapid filtration (96 well cell harvester) through a GF/C filter treated with wash buffer (50 mM Tris (pH 7.4)). Subsequently, the filter was washed 5 times with 0.3 mL of ice-cooled wash buffer. […] Total binding was measured in the presence of 1% DMSO and nonspecific binding was measured in the presence of […] Candesartan.

We go through ten molecules from US8283353B2, “Fused ring compound and use thereof” (Takeda Pharmaceutical Company Limited, priority 2009, dated 2012).

By IC50 is commonly meant the concentration at which inhibition is half-maximal.

The structures appear in SMILES notation.

Regarding `CCCc1c(Cc2ccc(-c3ccccc3-c3noc(=O)[nH]3)cc2)c(=O)n([C@H]2CC[C@H](OCC(C)O)CC2)c2ccnn12` (relative stereo) [Example 419, 4-[trans-4-(2-hydroxypropoxy)cyclohexyl]-6-{[2′-(5-oxo-4,5-dihydro-1,2,4-oxadiazol-3-yl)biphenyl-4-yl]methyl}-7-propylpyrazolo[1,5-a]pyrimidin-5(4H)-one], the activation at 1 µM at human PPARγ is 21%.
At human AT1 receptor, `CCCc1c(Cc2ccc(-c3ccccc3-c3noc(=O)[nH]3)cc2)c(=O)n([C@H]2CC[C@H](OC(C)C(C)(C)O)CC2)c2ncnn12` (single isomer, unassigned) [Example 318, 4-[trans-4-(2-hydroxy-1,2-dimethylpropoxy)cyclohexyl]-6-{[2′-(5-oxo-4,5-dihydro-1,2,4-oxadiazol-3-yl)biphenyl-4-yl]methyl}-7-propyl[1,2,4]triazolo[1,5-a]pyrimidin-5(4H)-one (retention time: short)] came in with a half-maximal inhibitory concentration (IC50) of 1.8 nM. This counts as single-digit nanomolar.
`CCCc1c(Cc2ccc(-c3ccccc3-c3noc(=O)[nH]3)cc2)c(=O)n([C@H]2CC[C@H](OCC(C)O)CC2)c2ccnn12` (single isomer, unassigned) [Example 440, 4-[trans-4-(2-hydroxypropoxy)cyclohexyl]-6-{[2′-(5-oxo-4,5-dihydro-1,2,4-oxadiazol-3-yl)biphenyl-4-yl]methyl}-7-propylpyrazolo[1,5-a]pyrimidin-5(4H)-one (optically active form, retention time: short)] showed an activation at 1 µM on human PPARγ of 16%.
`CCCc1c(Cc2ccc(-c3ccccc3-c3noc(=O)[nH]3)cc2F)c(=O)n(C2CCOC2)c2nc(C)nn12` (stereo not shown) [Example 120, 6-{[3-fluoro-2′-(5-oxo-4,5-dihydro-1,2,4-oxadiazol-3-yl)biphenyl-4-yl]methyl}-2-methyl-7-propyl-4-(tetrahydrofuran-3-yl)[1,2,4]triazolo[1,5-a]pyrimidin-5(4H)-one]: the activation at 1 µM at human PPARγ worked out at 18%.
`CCCc1c(Cc2ccc(-c3ccccc3-c3noc(=O)[nH]3)cc2)c(=O)n([C@H]2CC[C@@H](OCC(C)(C)O)CC2)c2ncnn12` [Example 158, 4-[cis-4-(2-hydroxy-2-methylpropoxy)cyclohexyl]-6-{[2′-(5-oxo-4,5-dihydro-1,2,4-oxadiazol-3-yl)biphenyl-4-yl]methyl}-7-propyl[1,2,4]triazolo[1,5-a]pyrimidin-5(4H)-one] displayed an activation at 1 µM on human PPARγ of 37%.
`CCCCc1c(Cc2ccc(-c3ccccc3-c3noc(=O)[nH]3)cc2)c(=O)n(C2CCOC(C)C2)c2ncnn12` (stereo not shown) [Example 160, 7-butyl-4-(2-methyltetrahydro-2H-pyran-4-yl)-6-{[2′-(5-oxo-4,5-dihydro-1,2,4-oxadiazol-3-yl)biphenyl-4-yl]methyl}[1,2,4]triazolo[1,5-a]pyrimidin-5(4H)-one] gave an IC50 at human AT1 receptor of 1.3 nM.
In turn, `CCCc1c(Cc2ccc(-c3ccccc3-c3noc(=O)[nH]3)cc2)c(=O)n([C@H]2CC[C@H](OCC(C)(C)O)CC2)c2ncnn12` [Example 381, 4-[trans-4-(2-hydroxy-2-methylpropoxy)cyclohexyl]-6-{[2′-(5-oxo-4,5-dihydro-1,2,4-oxadiazol-3-yl)biphenyl-4-yl]methyl}-7-propyl[1,2,4]triazolo[1,5-a]pyrimidin-5(4H)-one] returned an activation at 1 µM on human PPARγ of 32%.
Still for that read-out and setting: as for `CCCc1c(Cc2ccc(-c3ccccc3-c3noc(=O)[nH]3)cc2F)c(=O)n([C@H]2C[C@H](OCC(C)(C)O)C2)c2nc(C)nn12` [Example 403, 6-{[3-fluoro-2′-(5-oxo-4,5-dihydro-1,2,4-oxadiazol-3-yl)biphenyl-4-yl]methyl}-4-[trans-3-(2-hydroxy-2-methylpropoxy)cyclobutyl]-2-methyl-7-propyl[1,2,4]triazolo[1,5-a]pyrimidin-5(4H)-one], the figure is 17%.
`CCCc1c(Cc2ccc(-c3ccccc3-c3noc(=O)[nH]3)cc2F)c(=O)n([C@H]2C[C@@H](OCC(C)(C)O)C2)c2nc(C)nn12` [Example 404, 6-{[3-fluoro-2′-(5-oxo-4,5-dihydro-1,2,4-oxadiazol-3-yl)biphenyl-4-yl]methyl}-4-[cis-3-(2-hydroxy-2-methylpropoxy)cyclobutyl]-2-methyl-7-propyl[1,2,4]triazolo[1,5-a]pyrimidin-5(4H)-one] registered an activation at 1 µM on human PPARγ of 28%.
The same measure, in the same setting: in the case of `CCCc1c(Cc2ccc(-c3ccccc3-c3noc(=O)[nH]3)cc2)c(=O)n([C@H]2CC[C@H](OCC(C)(C)O)CC2)c2ccnn12` [Example 413, 4-[trans-4-(2-Hydroxy-2-methylpropoxy)cyclohexyl]-6-{[2′-(5-oxo-4,5-dihydro-1,2,4-oxadiazol-3-yl)biphenyl-4-yl]methyl}-7-propylpyrazolo[1,5-a]pyrimidin-5(4H)-one] it was 25%.
